# Measurements reported in patent publication US5100647A, “Method and formulations for the therapy of cystic fibrosis, Bartter's syndrome and secretory diarrheas, and for diuretic treatment” (The Trustees of the University of Pennsylvania, priority 1990, dated 1992).
# Counter-ions that a name gives are not always drawn. Like-named read-outs stand apart in the source and are kept apart here.
# Key:
# [1] = cited from earlier work
# [2] = system: potassium conductance of pancreatic beta cells; conditions: cited from earlier work
# [3] = cited from earlier work; remark: listed apart in the source
# chloride channel = assay: whole-cell patch clamp of chloride channel current in isolated cells from a cultured kidney cell line
# Text: Using isolated cells from a cultured kidney cell line, we tested the effects of various doses of Sparteine applied to the interior and exterior of the cell on current through the chloride channel as measured with standard patch clamp electrophysiologic techniques.
# [4] = system: chloride conductance of CF/T43 cells; assay: whole-cell chloride current in CF/T43 cystic fibrosis airway epithelial cells; assay type: cell-based, human
# Protocol: An aliquot of cells from a cell line, CF/T43, derived from airway epithelia from a patient with cystic fibrosis were used.
# Data were obtained using internal and external solutions as described by McCann, Li and Welsh in studies of whole cell ICI in normal human airway epithelial cells so as to be able to compare our data with theirs. The internal solutions are cesium-based providing a minimal internal calcium concentration (nominally 0-10 nM, with EGTA) and the external solution is sodium-based with symmetrical CI concentrations of 140 mM. No cyclic nucleotides are included in the solutions and amiloride is added to block the sodium conductance.
# potassium channel = conditions: requires millimolar concentrations; cited from earlier work
# sodium channels = sodium channels (Cavia porcellus, UniProt A0A286Y3I8); conditions: requires millimolar concentrations; cited from earlier work
compound,measurement,setting,value
C1CCN2C[C@@H]3C[C@@H](CN4CCCC[C@@H]34)[C@H]2C1 [Sparteine sulfate],insulin secretion,[1]; healthy human beings,enhance insulin secretion
same,glucagon secretion,[1]; insulin-dependent diabetics,increase glucagon secretion
same,insulin secretion,"[1]; non-diabetic obese individuals, intravenous administration",significant increase in insulin secretion
same,potassium conductance of pancreatic beta cells,[2],decreases the potassium conductance
same,water solubility and stability,[3],water soluble and stable
calcium,maximum chloride current with known activator added to the internal solution,chloride channel; depolarized to +70 mV from -45 mV,40-50
"C1CCN2CC3CC(CN4CCCCC34)C2C1 (stereo not drawn) [Sparteine, dodecahydro-7,14-methano-2H,6H-di-pyrido[1,2-a:1',2'-e][1,5]diazocine]",chloride current relative to the control value,"chloride channel; Sparteine 0.1, 50 and 500 μM",10-20 X
same,peak current through the chloride channel,"chloride channel; Sparteine 0.1, 50 and 500 μM, cells dialyzed with ATP, no cAMP, 10 nM calcium, depolarized to +70 mV from holding potential -45 mV",80-200 μA/cm^2
same,time course of the activated current with increasing dose,chloride channel; above 0.1 μM,increasingly rapid decline in the activated current
same,effect of externally applied compound on chloride current,"chloride channel; external, 0.1 to 10 nM",marked augmentation of the chloride current
same,effect on the chloride channel at higher concentrations,chloride channel; higher (micromolar-millimolar) concentrations,potent inhibitor
same,effect on the chloride channel at low concentrations,chloride channel; low (pico-nanomolar) concentrations,very potent activator
same,current amplitude,"[4]; external 0.1 nM, no cyclic nucleotides, minimal internal calcium, amiloride present",marked increase in current amplitude
same,reversal potential of the induced current,"[4]; external 0.1 nM, symmetrical Cl 140 mM",0 mV
same,induction of chloride current in cystic fibrosis cells,"[4]; pM, absence of cytosolic Ca^2+ and cyclic nucleotides",induces a chloride current
same,reversibility of the activated current,[4]; washout,reversible
same,action on olfactory tract axons,potassium channel,potassium channel blocker
same,antiarrhythmic classification due to effects on sodium channels,sodium channels,Class 1 cardiac antiarrhythmic
